Patent publication US20150361503A1, “METHODS FOR SELECTING THERAPEUTICS FOR TREATMENT OF HER2+ CANCERS” (Merrimack Pharmaceuticals, Inc., priority 2014, published 2015)

System: HER2+ cell lines
Test: In vitro cell growth assays: drug combination effects (CellTiter-Glo cell viability)
Format: cell-based
Experimental: Cells (BT474-M3, NCI-N87, NCI-N87-PIK3CA(wt), NCI-N87-PIK3CA(H1047R), NCI-N87-PIK3CA(E454K), COLO-678, KYSE-410, ZR75-1, MDA-MB-361 or MDA-MB-175-VII) are seeded at 700 cells per 384-well plate in 10% FBS cell growth medium and treated with the five drugs, separately or in combination, at […], with and without 5 nM HRG-β1 pre-stimulation (for four hours). Cell viability was determined 72 hours later with CellTiter-Glo® luminescent cell viability assay (Promega).
This panel included cells harboring PI3KCA-activating mutations (both natural and engineered), PTEN deletions, and KRAS-activating mutations, as well as PI3K and MAPK-wild type cells. To clarify and summarize the drug-response relationships, multivariate regression models were parameterized for each cell line, simulating % cell growth inhibition as linear combinations of the five input drug concentrations. Regression coefficients for each drug were grouped by mutational background and the presence or absence of heregulin stimulation, and average values computed (FIG. 4B).

| Structure (SMILES) | effect of HRG on sensitivity of cells to the drug (cell growth inhibition) (presence of 5 nM exogenous HRG, regardless of genetic background) | sensitivity of wild-type cells to drug-containing regimens (wild-type cells) | sensitivity of PI3K-mutant cells to drug-containing regimens (PI3K-mutant cells (MDA-MB-361, ZR-75-1, and NCI-N87-PIK3CA)) |
| --- | --- | --- | --- |
| CS(=O)(=O)CCNCc1ccc(-c2ccc3ncnc(Nc4ccc(OCc5cccc(F)c5)c(Cl)c4)c3c2)o1 [lapatinib] | desensitizes | most sensitive | – |
| NC1(c2ccc(-c3nc4ccn5c(=O)[nH]nc5c4cc3-c3ccccc3)cc2)CCC1 [MK2206] | – | – | most sensitive |
